{"source": "paper PMC7998731", "about": "“Pharmacokinetic Characterization of Supinoxin and Its Physiologically Based Pharmacokinetic Modeling in Rats” (Pharmaceutics, 2021)", "key": {"CYP2D6": {"target": "T1, CYP2D6 (Homo sapiens, UniProt P10635)", "T1 construct": "purchased Thermo Fisher Scientific", "T1 sequence (P10635 whole entry)": "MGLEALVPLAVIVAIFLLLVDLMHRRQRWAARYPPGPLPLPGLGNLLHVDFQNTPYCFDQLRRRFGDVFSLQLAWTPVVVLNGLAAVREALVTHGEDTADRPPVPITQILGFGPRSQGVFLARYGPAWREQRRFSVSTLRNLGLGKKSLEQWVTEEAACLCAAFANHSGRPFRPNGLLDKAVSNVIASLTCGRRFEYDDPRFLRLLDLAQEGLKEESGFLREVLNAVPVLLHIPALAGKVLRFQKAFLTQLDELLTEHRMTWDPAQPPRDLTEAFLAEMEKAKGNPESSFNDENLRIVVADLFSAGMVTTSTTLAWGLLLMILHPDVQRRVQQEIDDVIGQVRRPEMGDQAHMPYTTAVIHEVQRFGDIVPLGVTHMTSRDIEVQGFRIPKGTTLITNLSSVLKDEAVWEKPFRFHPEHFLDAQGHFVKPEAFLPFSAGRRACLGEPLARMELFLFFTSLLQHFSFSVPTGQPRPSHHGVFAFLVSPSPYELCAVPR", "assay": "CYP inhibition, Vivid CYP450 screening kit", "assay_type": "in vitro ADME", "method": "(§1) CYP inhibition by supinoxin was studied using Vivid® CYP450 screening kits (Thermo Fisher Scientific, San Jose, CA, USA) following the manufacturer’s instructions. Briefly, Vivid® substrates were dissolved in acetonitrile yielding a stock solution of 2 mM. Fluorescent assays were conducted at room temperature using Costar 96-well black plates (#3915; Corning Costar, Acton, MA, USA). Supinoxin stock solution was diluted in reaction buffer to yield a 2.5X concentration solution (final concentration of 10 µM); aliquots (40 μL) of the solution were added to the wells. Subsequently, aliquots (50 μL) of reaction mixture consisting of P450 Baculosomes® Reagent and the NADPH regeneration system were also added to the wells and preincubated for 10 min, at room temperature, after which 10 μL of 1 mM NADP^+ and Vivid® substrate mixture were added. After a 30-min incubation, fluorescence was detected in end-point mode using a Varioscan™ Flash multimode reader (Thermo Fisher Scientific, San Jose, CA, USA). Background fluorescence was obtained from wells not containing CYP isozymes and was withdrawn before further reaction. The excitation and emission wavelengths of 485 nm/530 nm for Vivid® Green substrates, and 409 nm/460 nm for Vivid® Blue substrates were used. The inhibition percentage of the compound was determined in comparison to the vehicle (i.e., DMSO)-treated control wells. For isozymes with > 50% inhibition at 10 μM, we determined the concentration-dependent inhibition of supinoxin to obtain the IC50 value at concentrations ranging from 0.59 to 10 μM."}, "CYP1A2": {"target": "T2, CYP1A2 (Homo sapiens, UniProt P05177)", "T2 construct": "purchased Thermo Fisher Scientific", "T2 sequence (P05177 1-516)": "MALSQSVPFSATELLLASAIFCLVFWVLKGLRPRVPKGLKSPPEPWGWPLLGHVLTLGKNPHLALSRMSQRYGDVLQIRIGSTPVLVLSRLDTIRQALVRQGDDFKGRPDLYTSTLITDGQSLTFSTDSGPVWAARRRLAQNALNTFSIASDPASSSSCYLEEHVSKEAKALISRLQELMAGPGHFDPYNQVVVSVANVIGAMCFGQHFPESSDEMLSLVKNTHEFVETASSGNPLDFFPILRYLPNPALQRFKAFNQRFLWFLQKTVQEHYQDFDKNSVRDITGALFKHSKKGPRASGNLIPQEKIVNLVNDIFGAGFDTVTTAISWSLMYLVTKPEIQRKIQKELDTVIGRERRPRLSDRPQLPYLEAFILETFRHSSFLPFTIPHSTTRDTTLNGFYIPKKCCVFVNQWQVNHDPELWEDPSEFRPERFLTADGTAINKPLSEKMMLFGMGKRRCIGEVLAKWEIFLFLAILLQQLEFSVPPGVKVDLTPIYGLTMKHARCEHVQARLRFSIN", "assay": "CYP inhibition, Vivid CYP450 screening kit", "assay_type": "in vitro ADME", "method": "as §1"}, "CYP3A4": {"target": "T3, CYP3A4 (Homo sapiens, UniProt P08684)", "T3 construct": "purchased Thermo Fisher Scientific", "T3 sequence (P08684 whole entry)": "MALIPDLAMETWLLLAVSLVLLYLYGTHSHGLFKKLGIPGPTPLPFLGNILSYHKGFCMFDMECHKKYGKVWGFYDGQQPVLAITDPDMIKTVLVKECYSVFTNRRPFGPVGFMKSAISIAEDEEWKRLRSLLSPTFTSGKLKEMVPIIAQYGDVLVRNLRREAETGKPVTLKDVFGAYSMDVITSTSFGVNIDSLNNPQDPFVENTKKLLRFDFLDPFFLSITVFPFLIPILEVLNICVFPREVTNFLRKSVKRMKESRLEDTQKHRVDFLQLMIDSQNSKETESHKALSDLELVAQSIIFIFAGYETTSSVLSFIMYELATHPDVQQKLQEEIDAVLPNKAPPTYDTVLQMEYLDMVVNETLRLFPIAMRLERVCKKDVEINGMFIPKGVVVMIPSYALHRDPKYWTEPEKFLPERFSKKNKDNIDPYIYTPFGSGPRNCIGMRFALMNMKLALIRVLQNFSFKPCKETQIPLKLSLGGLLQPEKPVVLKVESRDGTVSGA", "assay": "CYP inhibition, Vivid CYP450 screening kit", "assay_type": "in vitro ADME", "method": "as §1"}, "CYP2C19": {"target": "T4, CYP2C19 (Homo sapiens, UniProt P33261)", "T4 construct": "purchased Thermo Fisher Scientific", "T4 sequence (P33261 whole entry)": "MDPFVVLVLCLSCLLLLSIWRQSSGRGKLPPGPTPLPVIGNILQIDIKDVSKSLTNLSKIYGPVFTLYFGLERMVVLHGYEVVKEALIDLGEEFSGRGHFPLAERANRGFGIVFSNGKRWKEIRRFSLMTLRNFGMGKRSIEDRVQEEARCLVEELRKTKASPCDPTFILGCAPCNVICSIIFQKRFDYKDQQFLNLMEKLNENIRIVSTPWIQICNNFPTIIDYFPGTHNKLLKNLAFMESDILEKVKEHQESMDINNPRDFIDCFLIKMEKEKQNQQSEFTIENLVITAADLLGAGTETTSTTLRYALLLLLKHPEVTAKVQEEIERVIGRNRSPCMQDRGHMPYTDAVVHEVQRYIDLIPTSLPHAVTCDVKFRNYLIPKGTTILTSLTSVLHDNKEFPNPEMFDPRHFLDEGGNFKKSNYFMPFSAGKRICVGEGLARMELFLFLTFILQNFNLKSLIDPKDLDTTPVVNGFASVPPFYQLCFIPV", "assay": "CYP inhibition, Vivid CYP450 screening kit", "assay_type": "in vitro ADME", "method": "as §1"}, "CYP2C9": {"target": "T5, CYP2C9 (Homo sapiens, UniProt P11712)", "T5 construct": "purchased Thermo Fisher Scientific", "T5 sequence (P11712 whole entry)": "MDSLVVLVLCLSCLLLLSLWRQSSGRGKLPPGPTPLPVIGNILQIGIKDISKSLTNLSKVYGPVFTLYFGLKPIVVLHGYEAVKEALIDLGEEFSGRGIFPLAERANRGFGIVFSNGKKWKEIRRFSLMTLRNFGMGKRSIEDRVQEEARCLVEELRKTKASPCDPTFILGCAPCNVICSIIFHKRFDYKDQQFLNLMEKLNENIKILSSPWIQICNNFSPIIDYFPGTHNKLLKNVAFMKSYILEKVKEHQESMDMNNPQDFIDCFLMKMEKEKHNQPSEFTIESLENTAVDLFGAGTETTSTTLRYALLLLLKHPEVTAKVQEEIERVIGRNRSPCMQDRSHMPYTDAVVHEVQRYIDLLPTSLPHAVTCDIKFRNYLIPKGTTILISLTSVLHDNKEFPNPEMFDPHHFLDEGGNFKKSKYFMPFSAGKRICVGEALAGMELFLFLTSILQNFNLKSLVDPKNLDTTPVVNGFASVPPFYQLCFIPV", "assay": "CYP inhibition, Vivid CYP450 screening kit", "assay_type": "in vitro ADME", "method": "as §1"}, "[1]": {"settings": "cited from earlier work; for Plasma concentration, Mean: fasted male SD rats, oral 1 mg/kg, ref 15 (Table 2 footnote)"}, "[2]": {"assay": "Metabolic stability in rat liver microsomes", "assay_type": "in vitro ADME", "method": "In these experiments, the metabolic stability of supinoxin in rat liver microsomes (BD Biosciences, San Jose, CA, USA) was determined. The microsomal reaction mixture comprised the follows: liver microsomal protein (final concentration of 0.5 mg protein per mL reaction mixture) and an NADPH regenerating solution (1.3 mM NADP+, 3.3 mM glucose-6-phosphate, 0.4 U/mL glucose-6-phosphate dehydrogenase, and 3.3 mM MgCl2) in a 100 mM potassium phosphate buffer with a pH of 7.4. After 5 min preincubation of the reaction mixture in a water bath at 37 °C, the reaction was initiated by the addition of a supinoxin solution to obtain a final concentration of 1 µM. Aliquots (50 µL) of the mixture were sampled at 5, 15, 30, and 60 min after the initiation of the reaction. The reaction was terminated by adding a stop solution (200 µL of ice-chilled acetonitrile) to the sample immediately after collection. After mixing by vortexing and centrifugation of the mixtures at 15,000× g for 5 min, an aliquot (150 µL) of the supernatant was analyzed by LC–MS/MS assay. In addition, the metabolic stability of supinoxin was determined in the presence of UDP glucuronic acid under similar reaction conditions, except that uridine 5′-diphosphoglucuronic acid was added instead of the NADPH regenerating solution. Finally, metabolic stability of supinoxin was tested in concentration range of 0.1–10 μM to confirm that the concentration used in the study (1 μM) was below the Km for the metabolic reaction. The amount of sample remaining was plotted against the reaction time to determine the metabolic rate constant of the reaction. Assuming that the substrate concentration was below the Km for the metabolic reaction, the intrinsic clearance was calculated as follows:(6) CLint= Aprotein×ke/fu,mic·Cprotein where Aprotein is the total amount of liver microsomal protein, ke is the metabolic rate constant of the reaction, fu,mic is the unbound fraction of the drug in the reaction mixture, and Cprotein is the microsomal protein concentration (mg/mL) in the reaction mixture. In this calculation, an Aprotein of 1790 mg of protein per kg for rats was used.\nWhen necessary, the hepatic clearance of the compound was calculated using a well-stirred model as follows: (7) CLh= Q·CLint·fu,p/Q+CLint·fu,p/R where Q is the hepatic blood flow, fu,p is the unbound fraction of the drug in the plasma, and R is the blood-to-plasma partition ratio. In this calculation, a hepatic blood flow of 14.5 mL/min for 250 g rat was used, and the blood-to-plasma partition ratio was assumed to be 1."}, "[3]": {"settings": "rats, oral, 1 mg/kg, Jeong, J.-W. et al., 2017"}}, "note": "Like-named read-outs stand apart in the source and are kept apart here."}
{"smiles": "COc1cc(OC)cc(N2CCN(C(=O)Nc3nc4cc(F)ccc4nc3OC)CC2)c1", "note": "[supinoxin, 1-(3,5-Dimethoxyphenyl)-4-[(6-Fluoro-2-Methoxyquinoxalin-3-yl) Aminocarbonyl] Piperazine]", "values": [{"measurement": "IC50", "setting": "CYP2D6; human recombinant CYP2D6", "result": "> 10", "unit": "µM"}, {"measurement": "inhibition at 30 min, 10 µM", "setting": "CYP2D6; recombinant human CYP2D6 (P450 Baculosomes), probe Vivid substrate, human recombinant CYP2D6, 10 µM, read-out: inhibition compared to the vehicle control", "result": "< 0.01", "unit": "%"}, {"measurement": "IC50", "setting": "CYP1A2; human recombinant CYP1A2", "result": "> 10", "unit": "µM"}, {"measurement": "inhibition at 30 min, 10 µM", "setting": "CYP1A2; recombinant human CYP1A2 (P450 Baculosomes), probe Vivid substrate, human recombinant CYP1A2, 10 µM, read-out: inhibition compared to the vehicle control", "result": 5.9, "unit": "%"}, {"measurement": "IC50", "setting": "CYP3A4; human recombinant CYP3A4, 0.59 to 10 μM", "result": 4.66, "unit": "µM"}, {"measurement": "inhibition at 30 min, 10 µM", "setting": "CYP3A4; recombinant human CYP3A4 (P450 Baculosomes), probe Vivid substrate, human recombinant CYP3A4, 10 µM", "result": "> 50", "unit": "%"}, {"measurement": "IC50", "setting": "CYP2C19; human recombinant CYP2C19", "result": "> 10", "unit": "µM"}, {"measurement": "inhibition at 30 min, 10 µM", "setting": "CYP2C19; recombinant human CYP2C19 (P450 Baculosomes), probe Vivid substrate, human recombinant CYP2C19, 10 µM, read-out: inhibition compared to the vehicle control", "result": 35.7, "unit": "%"}, {"measurement": "IC50", "setting": "CYP2C9; human recombinant CYP2C9", "result": "> 10", "unit": "µM"}, {"measurement": "inhibition at 30 min, 10 µM", "setting": "CYP2C9; recombinant human CYP2C9 (P450 Baculosomes), probe Vivid substrate, human recombinant CYP2C9, 10 µM, read-out: inhibition compared to the vehicle control", "result": 16.2, "unit": "%"}, {"measurement": "Plasma concentration, Mean", "setting": "[1]; 0.25 h", "result": 211.9, "unit": "ng/mL"}, {"measurement": "Plasma concentration, Mean", "setting": "[1]; 0.5 h", "result": 233.6, "unit": "ng/mL"}, {"measurement": "Plasma concentration, Mean", "setting": "[1]; 1 h", "result": 231.2, "unit": "ng/mL"}, {"measurement": "Plasma concentration, Mean", "setting": "[1]; 3 h", "result": 122.2, "unit": "ng/mL"}, {"measurement": "Plasma concentration, Mean", "setting": "[1]; 7 h", "result": 34.9, "unit": "ng/mL"}, {"measurement": "Plasma concentration, Mean", "setting": "[1]; 10 h", "result": 13.7, "unit": "ng/mL"}, {"measurement": "Plasma concentration, Mean", "setting": "[1]; 24 h, BQL treated as 0", "result": 0.3, "unit": "ng/mL"}, {"measurement": "AUCinf", "setting": "[1]; [3]", "result": "1010 ± 420", "unit": "ng·h/mL"}, {"measurement": "AUClast", "setting": "[1]; [3]", "result": "984 ± 407", "unit": "ng·h/mL"}, {"measurement": "Cmax", "setting": "[1]; [3]", "result": "250 ± 93", "unit": "ng/mL"}, {"measurement": "F (absolute oral bioavailability)", "setting": "[1]; [3]", "result": "56.9 ± 23.7", "unit": "%"}, {"measurement": "MRT", "setting": "[1]; [3]", "result": "189 ± 75.6", "unit": "min"}, {"measurement": "T1/2", "setting": "[1]; [3]", "result": "127 ± 54.6", "unit": "min"}, {"measurement": "Tmax", "setting": "[1]; [3]", "result": "39 ± 20.2", "unit": "min"}, {"measurement": "half-life at 1 µM", "setting": "[2]; pH 7.4, rat liver microsomes, NADPH, 1 µM, read-out: NADPH-dependent metabolic half-life", "result": 17.1, "unit": "min"}, {"measurement": "CLint scaled at 1 µM", "setting": "[2]; pH 7.4, rat liver microsomes, NADPH, 1 µM, read-out: intrinsic clearance (converted)", "result": 233, "unit": "mL/min/kg"}, {"measurement": "remaining amount at the end of the 60-min incubation", "setting": "[2]; rat liver microsomes, NADPH, 1 µM", "result": "12.7 ± 0.1 % of the initial"}, {"measurement": "remaining amount in UDPGA-dependent metabolic stability study", "setting": "[2]; rat liver microsomes, UDPGA, 1 µM, 60 min", "result": "92.2 ± 0.1", "unit": "%"}, {"measurement": "half-life versus concentration", "setting": "[2]; rat liver microsomes, concentration ranges of 0.1–1 μM", "result": "remained constant"}, {"measurement": "hepatic clearance as share of the total in vivo clearance", "setting": "[2]; vs average clearance of 0.5–5 mg/kg intravenous administration", "result": 58.5, "unit": "%"}, {"measurement": "hepatic clearance", "setting": "[2]; well-stirred model, from rat liver microsomal incubation", "result": 7.38, "unit": "mL/min/kg"}]}
